Where a name gives a salt, the structure may show the parent alone.
Legend:
[1] = tested on: experimental autoimmune encephalomyelitis (EAE); experiment: Spinal cord histology, Luxol Fast Blue staining (demyelination score), EAE mice; format: in vivo, mouse
Protocol: (§1) After mouse euthanasia, spinal cord tissue was extracted, hematoxylin/eosin staining and Luxol Fast Blue staining were performed, and MBP-targeted immunohistochemical staining was performed, and histological evaluation was performed through blind evaluation.
On the 30th day which is the last day of the experiment, mouse was sacrificed, and the mouse spinal cord tissue was extracted and paraffin-embedded slides were prepared and then stained with Luxol Fast Blue, and the spinal cord tissue was photographed at 50 and 200 magnifications. In Luxol Fast Blue staining, myelin is stained from blue to green, and nerves are stained purple, and through this, the degree of demyelination was analyzed in the EAE model by confirming the neural structure in the spinal cord. Demyelination was analyzed according to the criteria described in Table 38 below and measured as a score.

p65 NF-κB [2] = experiment: Western blotting of NF-κB activity in LPS-treated SW982 cells; format: cell-based, human; conditions: LPS 1 ug/ml, 0.5, 1, 10, 100 uM, 30 minutes, naltrexone effect at 1 uM
Protocol: (§2) 1× Cell lysis buffer (Cell signaling, CA, USA) was mixed with protease and a phosphatase inhibitor and added to SW982 cells. After extracting the protein from the cells, the concentration was measured, and the same amount of protein was developed on an SDS-polyacrylamide gel, and transferred to an ECL nitrocellulose membrane (Amersham Pharmacia Biotech, Inc., Piscataway, N.J., USA) and blocked with nonfat dried milk for 1 hour. Thereafter, the reaction was performed with the first antibody (p65 NF-κB, phospho p65 NF-κB or calnexin; Cell signaling, CA, USA), while shaking at 4° C. for 24 hours. Then, after shaking and washing 3 times for 10 minutes with PBST buffer, the secondary antibody was incubated with anti-mouse or anti-rabbit HRP-conjugated secondary antibody for 1 hour at room temperature, and reacted with the protein band on the membrane using Supersignal west pico ECL solution (Thermo Fisher Scientific Inc.). The results were visualized with the Bio-Rad Gel Documentation system (Bio-Rad Laboratories, Hercules, Calif., USA), and the results were shown in FIG. 26.
as §2, with “phospho p65 NF-κB, p-ERK, ERK, p-JNK, JNK, p-p38, p38 or calnexin;” for “phospho p65 NF-κB or calnexin;”, “Scientific Inc.). […]” for “Scientific Inc.). The results were visualized with the Bio-Rad Gel Documentation system (Bio-Rad Laboratories, Hercules, Calif., USA), and the results were shown in FIG. 26.”

MAPKs (ERK, JNK, p38) [3] = experiment: Western blotting of MAPKs activity in LPS-treated SW982 cells; format: cell-based, human; conditions: LPS 1 ug/ml, 0.5, 1, 10, 100 uM, 30 minutes, naltrexone effect at 1 uM
Protocol: (§3) Western blotting was performed in the same manner as in Example 6.3. The first antibody used at this time is an antibody against p-ERK, ERK, p-JNK, JNK, p-p38, p38 and calnexin (Cell signaling, CA, USA), and the secondary antibody is anti-mouse or anti-rabbit HRP-binding secondary antibody.
1× Cell lysis buffer (Cell signaling, CA, USA) was mixed with protease and a phosphatase inhibitor and added to SW982 cells. After extracting the protein from the cells, the concentration was measured, and the same amount of protein was developed on an SDS-polyacrylamide gel, and transferred to an ECL nitrocellulose membrane (Amersham Pharmacia Biotech, Inc., Piscataway, N.J., USA) and blocked with nonfat dried milk for 1 hour. Thereafter, the reaction was performed with the first antibody (p65 NF-κB, phospho p65 NF-κB, p-ERK, ERK, p-JNK, JNK, p-p38, p38 or calnexin; Cell signaling, CA, USA), while shaking at 4° C. for 24 hours. Then, after shaking and washing 3 times for 10 minutes with PBST buffer, the secondary antibody was incubated with anti-mouse or anti-rabbit HRP-conjugated secondary antibody for 1 hour at room temperature, and reacted with the protein band on the membrane using Supersignal west pico ECL solution (Thermo Fisher Scientific Inc.). The results were visualized with the Bio-Rad Gel Documentation system (Bio-Rad Laboratories, Hercules, Calif., USA), and the results are shown in FIG. 35.

p65 NF-κB [4] = experiment: Western blotting of NF-κB activity in LPS-treated Raw 264.7 cells; format: cell-based, mouse; conditions: LPS 1 ug/ml, 0.5, 1, 10, 100 uM, 30 minutes
MAPKs (ERK, JNK, p38) [5] = experiment: Western blotting of MAPKs activity in LPS-treated Raw 264.7 cells; format: cell-based, mouse; conditions: LPS 1 ug/ml, 0.5, 1, 10, 100 uM, 30 minutes
Protocol: as §3
Western blotting was performed in the same manner as in Example 7.4.

[6] = tested on: pro-inflammatory cytokines (TNF-α, IL-1β, IL-6, IL-17, iNOS) in SW982 cells; experiment: RT-qPCR of LPS-induced pro-inflammatory cytokine expression in SW982 cells; conditions: LPS 1 ug/ml, 0.5, 1, 10, 100 uM, 6 hours
Source text: (§4) Lipopolysaccharide (LPS) was purchased from Sigma-Aldrich (St. Louis, Mo., USA).

[7] = tested on: pro-inflammatory cytokines (TNF-α, IL-1β, IL-6, IL-17, iNOS) in Raw 264.7 cells; experiment: RT-qPCR of LPS-induced pro-inflammatory cytokine expression in Raw 264.7 cells; conditions: LPS 1 ug/ml, 0.5, 1, 10, 100 uM, 6 hours
Source text: as §4

[8] = tested on: experimental autoimmune encephalomyelitis (EAE); experiment: Spinal cord histology, hematoxylin/eosin staining (inflammation score), EAE mice; format: in vivo; conditions: day 30, spinal cord, Fytarex 3 mg/kg, Revia 1 mg/kg, Q-DDS 1 mg/mouse
Protocol: as §1
On the 30th day which is the last day of the experiment, mouse was sacrificed, and the mouse spinal cord tissue was extracted and paraffin-embedded slides were prepared and then stained with hematoxylin/eosin, and the spinal cord tissue was photographed at 50 and 200 magnifications. Then, histological scores were measured according to the histological evaluation criteria of Table 36 below to evaluate the distribution of inflammatory cells.

[9] = tested on: myelin basic protein (MBP); experiment: Immunohistochemistry staining of spinal cord with anti-myelin basic protein antibody, EAE mice; format: in vivo; conditions: day 30, spinal cord IHC, Fytarex 3 mg/kg, Revia 1 mg/kg, Q-DDS 1 mg/mouse
Protocol: as §1
On the 30th day which is the last day of the experiment, mouse was sacrificed, and the mouse spinal cord tissue was extracted and paraffin-embedded slides were prepared and then myelin basic protein (MBP) was stained immunohistochemically, and the spinal cord tissue was photographed at 50 and 200 magnifications. This is to confirm demyelination through immunohistochemical analysis using an antibody against myelin basic protein (MBP), a component of myelin.

[10] = tested on: experimental autoimmune encephalomyelitis (EAE); experiment: EAE clinical score in experimental autoimmune encephalomyelitis mice (multiple sclerosis model); format: in vivo; conditions: Example 5, EAE mouse; Q-DDS 1 mg/mouse sc once on day 3; Fytarex 3 mg/kg oral daily; Revia oral daily; mean±SEM
Protocol: As an experimental autoimmune encephalomyelitis mouse model (Mouse Experimental Autoimmune Encephalomyelitis: EAE), 6 to 10 week-old female mice of C57BL/6 strain were prepared.
Myelin-oligodendrocyte glycoprotein (MOG) was dissolved in phosphate-buffered saline (PBS) to be 1 mg/mL, and was emulsified by mixing at 1:1 (v/v) with 5 mg/mL Complete Freund's adjuvant. 100 μl of this was subcutaneously injected into both sides of the mouse, and then 400 μl of 2 pg/mL pertussis toxin was intraperitoneally injected (first immunization, day 0). On the second day, 400 μl of 2 μg/mL pertussis toxin was intraperitoneally injected a second time. On the third day after the first immunization, the test was performed by separating the experimental group.
Then, the occurrence and extent of clinical symptoms were regularly observed until the end of the experiment (The 30th day). The clinical symptom level was assigned a score of 0 to 5 after evaluating the functionality of the tail and four legs according to the criteria in Table 34 below, and was used as the EAE clinical score.

SMILES: O=C1CC[C@@]2(O)[C@H]3Cc4ccc(O)c5c4[C@@]2(CCN3CC2CC2)[C@H]1O5 [Revia®, naltrexone hydrochloride]
- demyelination histological score (Luxol Fast Blue, spinal cord) ([1]; Example 5, EAE mouse, day 30, Q-DDS 1 mg/mouse sc once, Fytarex and Revia oral daily, mean±SEM): decrease in histological score and demyelination

SMILES: Oc1ccc2c3c1O[C@H]1[C@H](O)CC[C@@]4(O)[C@@H](C2)N(CC2CC2)CC[C@]314 [6β-naltrexol]
- phosphorylation of p65 NF-κB increased by LPS (p65 NF-κB [2]): no inhibitory effect
- phosphorylation of MAPKs (ERK1/2, JNK, p38) increased by LPS (MAPKs (ERK, JNK, p38) [3]): no inhibitory effect
- p65 NF-κB phosphorylation increased by LPS (p65 NF-κB [4]): inhibited
- phosphorylation of MAPKs (ERK1/2, JNK, p38) (MAPKs (ERK, JNK, p38) [5]): no inhibitory effect
- expression of cytokines (iNOS, IL-1β, IL-6, TNF-α) induced by LPS [6]: suppressed at all concentrations
- expression of cytokines (iNOS, IL-1β, IL-6, TNF-α) induced by LPS [7]: suppressed at all concentrations

SMILES: O=C1CC[C@@]2(O)[C@H]3Cc4ccc(O)c5c4[C@@]2(CCN3CC2CC2)[C@H]1O5 [Revia ®]
- Inflammation score (histological score), Mean [8]: 1.42
- Demyelination score (histological score), Mean ([1]; EAE mice, day 30, spinal cord, Luxol Fast Blue, Fytarex 3 mg/kg, Revia 1 mg/kg, Q-DDS 1 mg/mouse): 0.61
- MBP positive area/total spinal area, Mean [9]: 58.23

SMILES: CCCCCCCCc1ccc(CCC(N)(CO)CO)cc1 [Fytarex®, Fingolimod]
- EAE clinical score [10]: 1.67±0.13
